Experimental data taken from ChEMBL document CHEMBL4007384, “Synthesis and optimization of furano[3,2-d]pyrimidines as selective spleen tyrosine kinase (Syk) inhibitors” (Bioorg Med Chem Lett, 2016).
Values after ≈ are worked out from the molar mass of the structure shown.

What was measured:
[1] = Unbound clearance in human microsomes; format: ADME, Microsome
[2] = Unbound clearance in rat microsomes; format: ADME, Microsome
CYP3A4 [3] = biological target: T1, CYP3A4 (Homo sapiens, UniProt P08684); test: Inhibition of CYP3A4 in human liver microsomes assessed as residual activity at 50 uM measured after 30 mins relative to control; format: ADME; conditions: read-out: Activity
T1 sequence (P08684 whole entry): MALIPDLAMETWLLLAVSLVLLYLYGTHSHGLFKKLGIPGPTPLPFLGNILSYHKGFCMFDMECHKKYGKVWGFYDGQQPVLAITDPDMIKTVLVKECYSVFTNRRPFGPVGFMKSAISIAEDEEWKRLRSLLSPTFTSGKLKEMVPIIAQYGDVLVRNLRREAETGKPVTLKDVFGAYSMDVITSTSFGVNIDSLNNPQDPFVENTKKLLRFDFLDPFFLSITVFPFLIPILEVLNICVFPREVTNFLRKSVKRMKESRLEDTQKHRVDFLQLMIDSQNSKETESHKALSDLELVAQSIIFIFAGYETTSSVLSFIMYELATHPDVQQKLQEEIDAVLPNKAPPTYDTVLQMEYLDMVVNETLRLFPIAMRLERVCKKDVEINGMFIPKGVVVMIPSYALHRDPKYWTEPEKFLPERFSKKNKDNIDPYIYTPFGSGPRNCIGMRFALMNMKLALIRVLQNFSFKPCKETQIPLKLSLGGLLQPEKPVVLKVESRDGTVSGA

CYP3A4 [4] = biological target: T1, CYP3A4; test: Inhibition of CYP3A4 in human liver microsomes assessed as residual activity at 50 uM measured immediately relative to control; format: ADME; conditions: read-out: Activity
[5] = Solubility in pH 5 FeSSIF at 0.2 mg sonicated for 10 mins followed by incubation for 2 days by HPLC analysis; format: physicochemical
Cytochrome P450 3A4 = Cytochrome P450 3A4 (Homo sapiens, UniProt P08684); test: Time-dependent inhibition of CYP3A4 in human liver microsomes at 10 to 50 uM; format: ADME
Chain of Cytochrome P450 3A4 (P08684 whole entry): as above

CYP3A4 [6] = biological target: T1, CYP3A4; test: Inhibition of CYP3A4 in human liver microsomes assessed as residual activity at 10 uM measured after 30 mins relative to control; format: ADME; conditions: read-out: Activity
CYP3A4 [7] = biological target: T1, CYP3A4; test: Inhibition of CYP3A4 in human liver microsomes assessed as residual activity at 10 uM measured immediately relative to control; format: ADME; conditions: read-out: Activity
Rattus norvegicus = test: Antiarthritic activity in rat model of collagen-induced arthritis assessed as inhibition of paw swelling at 3 mg/kg, bid for 8 days relative to control; format: functional; conditions: 192 h

CL free [1] [mL/min/kg] | CL free [2] [mL/min/kg] | SMILES | further results
507 | 1080 | CC(C)CNc1nc(Nc2ccc3c(c2)NC(=O)COC3(C)C)nc2ccoc12 | 
 | 365 | O=C1CCc2ccc(Nc3nc(NCC(F)(F)F)c4occc4n3)cc2N1 | 
120 | 200 | CC1(C)OCC(=O)Nc2cc(Nc3nc(NC4CC4)c4occc4n3)ccc21 | activity at 0.5 h, 50 µM (CYP3A4 [3]): 14%; activity at 0 min, 50 µM (CYP3A4 [4]): 80%; solubility at 48 h [5]: 158 µM (≈ 59.9 µg/mL); TDI (Cytochrome P450 3A4): Active; activity at 0.5 h, 10 µM (CYP3A4 [6]): 56%; activity at 0 min, 10 µM (CYP3A4 [7]): 97%
91.7 | 318 | CCNc1nc(Nc2ccc3c(c2)NC(=O)COC3(C)C)nc2ccoc12 | solubility at 48 h [5]: > 67 µM
 | 880 | CC1(C)CCC(=O)Nc2cc(Nc3nc(NCC(F)(F)F)c4occc4n3)ccc21 | 
317 | 397 | CC1(C)CCC(=O)Nc2cc(Nc3nc(NC4CC4)c4occc4n3)ccc21 | 
 |  | C[C@]12C=CC(=O)C=C1CC[C@@H]1[C@@H]2[C@@H](O)C[C@@]2(C)[C@H]1CC[C@]2(O)C(=O)CO [PREDNISOLONE] | inhibition in vivo at 3 mg/kg (Rattus norvegicus): 86%
